{"source": "patent US20100048710A1", "about": "“Methods and Compositions for Modulating Muscle Fat in Livestock” (priority 2006, published 2010)", "format_in_all_cases": "cell-based", "key": {"[1]": {"system": "Heterogeneous SC preadipocytes", "assay": "GPDH activity in heterogeneous bovine SC preadipocytes, IBU, aspirin or indomethacin for 12 days (Example 5)", "details": "for GPDH activity versus control: P<0.001", "procedure": "(§1) Preadipocytes from IM and SC adipose tissue were isolated using a modification of Forest et al., 1987, Exp. Cell Res. 168:218-232. Cells were seeded at a density of 4,160 cells/cm^2 in 35 mm cell culture wells in DMEM with 5.5 mM glucose, supplemented with 100 units/ml penicillin G, 0.1 mg/ml streptomycin sulfate, 0.25 μg/ml amphotericin B, 0.05 mg/ml gentamicin, 33 μM biotin, 17 μM pantothenate, 200 μM ascorbate, 1 mM octanoate, and 10% fetal bovine serum. The cells were grown in a 37° C./5% CO2 incubator. Growth media was replaced every two days until the cells reached confluency (approximately 4 days), at which point the cells were washed twice with phosphate buffered saline (PBS) and differentiation treatments were applied. The differentiation medium consisted of DMEM with 5.5 mM glucose, 100 units/ml penicillin G, 0.1 mg/ml streptomycin sulfate, 0.25 μg/ml amphotericin B, 0.05 mg/ml gentamicin, 33 μM biotin, 17 μM pantothenate, 200 μM ascorbate, 280 nM bovine insulin, and 5 μl/ml bovine serum lipids (Ex-Cyte, Serologicals Corp., Norcross, Ga.). After 48 hours of differentiation media exposure, the cells were washed twice with PBS and differentiation media was replaced every two days for 10 days. Glycerol-3-phosphate dehydrogenase (GPDH) activity was quantified biochemically by measuring GPDH enzyme activity using a modification of a previously published method (Adams et al., J. Clin. Invest. 100:3149-3153). […] Media was changed every two days as previously described until day 12. Adipogenesis was quantitated by measuring GPDH activity. Data were analyzed using the mixed model procedure of SAS (SAS, Cary, N.C.). In all experiments, pooled cells from two wells of a 6 well (35 mm) plate were considered the experimental unit. When main effects were significant (P<0.05), differences between means were evaluated utilizing Tukey's multiple comparison test. […] To satisfy the conditions of normality and homogeneity of variance, GPDH data were loge transformed in Example 2, and GPDH data were square root transformed in Example 3."}, "[2]": {"system": "Heterogeneous IM preadipocytes", "assay": "GPDH activity in heterogeneous bovine IM preadipocytes, IBU, aspirin or indomethacin for 12 days (Example 5)", "procedure": "as §1"}, "[3]": {"system": "bovine preadipocytes isolated from intramuscular (IM) adipose tissue", "assay": "GPDH activity in bovine IM preadipocytes, 48 h exposure to DEX and IBU (Example 3, FIG. 2)", "details": "48 hours with 25 nM DEX", "description": "(§6) The cells were grown in a 37° C./5% CO2 incubator. Growth media was replaced every two days until the cells reached confluency (approximately 4 days), at which point the cells were washed twice with phosphate buffered saline (PBS) and differentiation treatments were applied. The differentiation medium consisted of DMEM with 5.5 mM glucose, 100 units/ml penicillin G, 0.1 mg/ml streptomycin sulfate, 0.25 μg/ml amphotericin B, 0.05 mg/ml gentamicin, 33 μM biotin, 17 μM pantothenate, 200 μM ascorbate, 280 nM bovine insulin, and 5 μl/ml bovine serum lipids (Ex-Cyte, Serologicals Corp., Norcross, Ga.). After 48 hours of differentiation media exposure, the cells were washed twice with PBS and differentiation media was replaced every two days for 10 days. […] After treatment for 48 hours, media was changed as previously described until day 10. Cells from two beef steers were used, and duplicates of each steer treatment were done. Adipogenesis was quantitated by measuring GPDH activity. Data were analyzed using the mixed model procedure of SAS (SAS, Cary, N.C.). In all experiments, pooled cells from two wells of a 6 well (35 mm) plate were considered the experimental unit. When main effects were significant (P<0.05), differences between means were evaluated utilizing Tukey's multiple comparison test."}, "[4]": {"system": "bovine heterogeneous preadipocyte cultures from subcutaneous (SC) adipose tissue", "assay": "GPDH activity in heterogeneous bovine SC preadipocytes, 12 day exposure with DEX (Example 4, FIG. 3)", "procedure": "(§2) Preadipocytes from IM and SC adipose tissue were isolated using a modification of Forest et al., 1987, Exp. Cell Res. 168:218-232. Cells were seeded at a density of 4,160 cells/cm^2 in 35 mm cell culture wells in DMEM with 5.5 mM glucose, supplemented with 100 units/ml penicillin G, 0.1 mg/ml streptomycin sulfate, 0.25 μg/ml amphotericin B, 0.05 mg/ml gentamicin, 33 μM biotin, 17 μM pantothenate, 200 μM ascorbate, 1 mM octanoate, and 10% fetal bovine serum. The cells were grown in a 37° C./5% CO2 incubator. Growth media was replaced every two days until the cells reached confluency (approximately 4 days), at which point the cells were washed twice with phosphate buffered saline (PBS) and differentiation treatments were applied. […]\n(§3) Glycerol-3-phosphate dehydrogenase (GPDH) activity was quantified biochemically by measuring GPDH enzyme activity using a modification of a previously published method (Adams et al., J. Clin. Invest. 100:3149-3153).\n(§4) Media was changed every two days as previously described until day 12. Adipogenesis was quantitated by measuring GPDH activity.\n(§5) Data were analyzed using the mixed model procedure of SAS (SAS, Cary, N.C.). […] When main effects were significant (P<0.05), differences between means were evaluated utilizing Tukey's multiple comparison test. […]"}, "[5]": {"system": "bovine heterogeneous preadipocyte cultures from intramuscular (IM) adipose tissue", "assay": "GPDH activity in heterogeneous bovine IM preadipocytes, 12 day exposure with DEX (Example 4, FIG. 3)", "procedure": "as §2, §3, §4, §5"}, "[6]": {"system": "bovine preadipocytes isolated from subcutaneous (SC) adipose tissue", "assay": "GPDH activity in bovine SC preadipocytes, 48 h exposure to DEX and IBU (Example 3, FIG. 2)", "details": "IBU for 48 hours with 25 nM DEX", "description": "as §6"}}, "note": "Entries after “also recorded” stand apart in the source; their conditions may differ."}
{"compound": "CC(=O)Oc1ccccc1C(=O)O", "note": "[Aspirin, aspirin]", "values": [{"measurement": "GPDH activity, aspirin alone", "setting": "[1]; SC preadipocytes, 500 μM, 12 days, alone", "value": "did not affect GPDH activity; also recorded: did not enhance GPDH activity"}, {"measurement": "GPDH activity, aspirin in combination with DEX", "setting": "[1]; SC preadipocytes, 500 μM, 12 days, with DEX", "value": "did not enhance GPDH activity"}, {"measurement": "GPDH activity, aspirin alone", "setting": "[2]; IM preadipocytes, 500 μM, 12 days, alone", "value": "did not affect GPDH activity; also recorded: did not enhance GPDH activity"}, {"measurement": "GPDH activity, aspirin in combination with DEX", "setting": "[2]; IM preadipocytes, 500 μM, 12 days, with DEX", "value": "did not enhance GPDH activity"}]}
{"compound": "CC(C)Cc1ccc(C(C)C(=O)O)cc1", "note": "(centres unmarked) [IBU, 2-(p-isobutylphenyl)propionic acid]", "values": [{"measurement": "maximum induction of GPDH activity", "setting": "[1]; SC cells, IBU, 12 days, absence of DEX", "value": 1.7, "unit": "fold over control"}, {"measurement": "GPDH activity versus control", "setting": "[1]; SC preadipocytes, 10 μM IBU, 12 days, absence of DEX", "value": "enhanced GPDH activity"}, {"measurement": "GPDH activity versus control", "setting": "[1]; SC preadipocytes, 100 μM IBU, 12 days, absence of DEX", "value": "enhanced GPDH activity"}, {"measurement": "GPDH activity versus control", "setting": "[1]; SC preadipocytes, 500 μM IBU, 12 days, absence of DEX", "value": "enhanced GPDH activity"}, {"measurement": "effect of IBU on DEX stimulation of GPDH activity", "setting": "[3]; 1000 μM IBU", "value": "enhanced DEX stimulation of GPDH activity"}, {"measurement": "effect of IBU on DEX stimulation of GPDH activity", "setting": "[3]; 2000 μM IBU", "value": "enhanced DEX stimulation of GPDH activity"}, {"measurement": "GPDH activity versus control", "setting": "[2]; IM cells, 1000 μM IBU, 12 days, absence of DEX, P=0.003", "value": "higher than control"}, {"measurement": "maximum induction of GPDH activity", "setting": "[2]; IM cells, IBU, 12 days, absence of DEX", "value": 12, "unit": "fold over control"}, {"measurement": "GPDH activity versus control", "setting": "[2]; IM preadipocytes, 500 μM IBU, 12 days, absence of DEX", "value": "enhanced GPDH"}, {"measurement": "effect of IBU on DEX induction of differentiation (GPDH)", "setting": "[4]; SC cells, 100 μM IBU", "value": "enhanced DEX induction of differentiation"}, {"measurement": "effect of IBU on DEX stimulation of GPDH", "setting": "[4]; SC preadipocytes, 1000 μM IBU", "value": "reduced DEX stimulation of GPDH"}, {"measurement": "effect of IBU on DEX induction of differentiation (GPDH)", "setting": "[5]; 100 μM IBU", "value": "enhanced DEX induction of differentiation"}, {"measurement": "effect of IBU on DEX induction of differentiation (GPDH)", "setting": "[5]; 500 μM IBU", "value": "enhanced DEX induction of differentiation"}, {"measurement": "effect of IBU on DEX stimulation of GPDH activity", "setting": "[6]", "value": "did not enhance DEX stimulation of GPDH activity"}]}
{"compound": "COc1ccc2c(c1)c(CC(=O)O)c(C)n2C(=O)c1ccc(Cl)cc1", "note": "[Indomethacin, indomethacin]", "values": [{"measurement": "toxicity to cells", "setting": "[1]; SC preadipocytes, 500 μM, up to 12 days", "value": "toxic to cells"}, {"measurement": "toxicity to cells", "setting": "[2]; IM preadipocytes, 500 μM, up to 12 days", "value": "toxic to cells"}]}
